Reference: US8003658B2, “Quinazoline derivatives for inhibiting cancer cell growth and method for the preparation thereof” (Hanmi Holdings Co., Ltd., priority 2004, dated 2011)
Read-outs that look alike come from different tables or passages of the source.

Experiments:
SK-Br3 (ATCC: HTB-30) = assay: Test of cancer cell growth inhibition (SRB), SK-Br3; conditions: read-out: IC50 SK-Br-3
A431 (ATCC: CRL-1555) = assay: Test of cancer cell growth inhibition (SRB), A431; conditions: read-out: IC50 A431
[1] = Erb-B2 overexpressed SK-Br3, 72 hours, SRB
[2] = EGFR overexpressed A431, 72 hours, SRB

Row | IC50 (SK-Br3 (ATCC: HTB-30); Homo sapiens, SK-BR-3, 72 h) [nM] | IC50 (A431 (ATCC: CRL-1555); Homo sapiens, A-431, 72 h) [nM] | IC50 (SK-Br3 (ATCC: HTB-30); [1]) [nM] | IC50 (A431 (ATCC: CRL-1555); [2]) [nM] | Compound
1 | 51 | 641 |  |  | CS(=O)(=O)CCNCC(=O)NCCCC(=O)Nc1ccc2ncnc(Nc3ccc(OCc4cccc(F)c4)c(Cl)c3)c2c1 [Example 107, N-{4-[3-chloro-4-(3-fluoro-benzyloxy)-phenylamino]-quinazolin-6-yl}-4-[2-(2-methanesulfonyl-ethylamino)-acetylamino]-butyramide]
2 | 216 | 136 |  |  | CC(C)(C)OC(=O)NCCCCC(=O)Nc1ccc2ncnc(Nc3ccc(OCc4cccc(F)c4)c(Cl)c3)c2c1 [Example 114, (4-{4-[3-chloro-4-(3-fluoro-benzyloxy)-phenylamino]-quinazolin-6-ylcarbamoyl}-butyl)-carbamic acid t-butylester]
3 | 161 | 735 |  |  | C[S+]([O-])CC(=O)NCCC(=O)Nc1ccc2ncnc(Nc3ccc(OCc4cccc(F)c4)c(Cl)c3)c2c1 (stereo not shown) [Example 118, N-{4-[3-chloro-4-(3-fluoro-benzyloxy)-phenylamino]-quinazolin-6-yl}-3-(2-methanesulfinyl-acetylamino)-propionamide]
4 | 69 | 161 |  |  | O=C(CCNC(=O)C(F)(F)F)Nc1ccc2ncnc(Nc3ccc(OCc4cccc(F)c4)c(Cl)c3)c2c1 [Example 119, N-{4-[3-chloro-4-(3-fluoro-benzyloxy)-phenylamino]-quinazolin-6-yl}-3-(2,2,2-trifluoro-acetylamino)-propionamide]
5 | 69 | 616 |  |  | CC(=O)OCC(=O)NCCC(=O)Nc1ccc2ncnc(Nc3ccc(OCc4cccc(F)c4)c(Cl)c3)c2c1 [Example 121, acetic acid (2-{4-[3-chloro-4-(3-fluoro-benzyloxy)-phenylamino]-quinazolin-6-ylcarbamoyl}-ethylcarbamoyl)-methylester]
6 | 85 | 617 |  |  | CN(C)CCOCC(=O)NCCC(=O)Nc1ccc2ncnc(Nc3ccc(OCc4cccc(F)c4)c(Cl)c3)c2c1 [Example 122, N-{4-[3-chloro-4-(3-fluoro-benzyloxy)-phenylamino]-quinazolin-6-yl}-3-[2-(2-dimethylamino-ethoxy)-acetylamino]-propionamide]
7 | 107 | 584 |  |  | O=C(CCNC(=O)Nc1ccccc1)Nc1ccc2ncnc(Nc3ccc(OCc4cccc(F)c4)c(Cl)c3)c2c1 [Example 124, N-{4-[3-chloro-4-(3-fluoro-benzyloxy)-phenylamino]-quinazolin-6-yl}-3-(3-phenyl-ureido)-propionamide]
8 | 83 | 272 |  |  | O=C(CCNC(=O)NCc1ccco1)Nc1ccc2ncnc(Nc3ccc(OCc4cccc(F)c4)c(Cl)c3)c2c1 [Example 125, N-{4-[3-chloro-4-(3-fluoro-benzyloxy)-phenylamino]-quinazolin-6-yl}-3-(3-furan-2-ylmethyl-ureido)-propionamide]
9 | 91 | 99 |  |  | COC(=O)NCCC(=O)Nc1ccc2ncnc(Nc3ccc(OCc4cccc(F)c4)c(Cl)c3)c2c1 [Example 126, (2-{4-[3-chloro-4-(3-fluoro-benzyloxy)-phenylamino]-quinazolin-6-ylcarbamoyl}-ethyl)-carbamic acid methylester]
10 | 585 | 489 |  |  | O=C(CCNC(=O)OCc1ccccc1)Nc1ccc2ncnc(Nc3ccc(OCc4cccc(F)c4)c(Cl)c3)c2c1 [Example 128, (2-{4-[3-chloro-4-(3-fluoro-benzyloxy)-phenylamino]-quinazolin-6-ylcarbamoyl}-ethyl)-carbamic acid benzylester]
11 | 345 | 490 |  |  | COCC(=O)NCCC(=O)Nc1ccc2ncnc(Nc3ccc(OCc4ccccn4)c(Cl)c3)c2c1 [Example 129-2, N-{4-[3-chloro-4-(pyridin-2-ylmethoxy)-phenylamino]-quinazolin-6-yl}-3-(2-methoxy-acetylamino)-propionamide]
12 | 662 | 880 |  |  | COCC(=O)NCCC(=O)Nc1ccc2ncnc(Nc3ccc(OCc4cccnc4)c(Cl)c3)c2c1 [Example 132-2, N-{4-[3-chloro-4-(pyridin-3-ylmethoxy)-phenylamino]-quinazolin-6-yl}-3-(2-methoxy-acetylamino)-propionamide]
13 | 1110 | 7260 |  |  | CS(=O)(=O)CC(=O)NCCC(=O)Nc1ccc2ncnc(Nc3ccc(OCc4cccnc4)c(Cl)c3)c2c1 [Example 133, N-{4-[3-chloro-4-(pyridin-3-ylmethoxy)-phenylamino]-quinazolin-6-yl}-3-(2-methanesulfonyl-acetylamino)-propionamide]
14 | 4 | 193 |  |  | C=CC(=O)NCCC(=O)Nc1ccc2ncnc(Nc3ccc(OCc4cccnc4)c(Cl)c3)c2c1 [Example 134, N-(2-{4-[3-chloro-4-(pyridin-3-ylmethoxy)-phenylamino]-quinazolin-6-ylcarbamoyl}-ethyl)-acrylamide]
15 | 92 | 123 |  |  | COCCOCC(=O)NCCC(=O)Nc1ccc2ncnc(Nc3ccc(OCc4cccc(F)c4)c(Cl)c3)c2c1 [Example 135, N-{4-[3-chloro-4-(3-fluoro-benzyloxy)-phenylamino]-quinazolin-6-yl}-3-[2-(2-methoxy-ethoxy)-acetylamino]-propionamide]
16 |  |  | 1710 | 828 | Cc1oncc1C(=O)NCCC(=O)Nc1ccc2ncnc(Nc3ccc(OCc4cccc(F)c4)c(Cl)c3)c2c1 [Example 136]
17 |  |  | 44 | 100 | CSCC(=O)NCCCC(=O)Nc1ccc2ncnc(Nc3ccc(OCc4cccc(F)c4)c(Cl)c3)c2c1 [Example 137, N-{4-[3-chloro-4-(3-fluoro-benzyloxy)phenylamino]-quinazolin-6-yl}-4-(2-methanesulfanyl-acetylamino)-butyramide]
18 | 54 | 102 |  |  | C[S+]([O-])CC(=O)NCCCC(=O)Nc1ccc2ncnc(Nc3ccc(OCc4cccc(F)c4)c(Cl)c3)c2c1 (stereo not shown) [Example 138, N-{4-[3-chloro-4-(3-fluoro-benzyloxy)-phenylamino]-quinazolin-6-yl}-4-(2-methanesulfinyl-acetylamino)-butyramide]
19 | 102 | 102 |  |  | C=CC(=O)NCCC(=O)N(CC)c1ccc2ncnc(Nc3ccc(OCc4cccc(F)c4)c(Cl)c3)c2c1 [Example 140, N-[2-({4-[3-chloro-4-(3-fluoro-benzyloxy)-phenylamino]-quinazolin-6-yl}-ethyl-carbamoyl)-ethyl]-acrylamide]
20 | 804 | 1330 |  |  | C=CC(=O)NCCC(=O)N(CCCN(C)C)c1ccc2ncnc(Nc3ccc(OCc4cccc(F)c4)c(Cl)c3)c2c1 [Example 141-4, N-{2-[{4-[3-chloro-4-(3-fluoro-benzyloxy)-phenylamino]-quinazolin-6-yl}-(3-dimethylamino-propyl)-carbamoyl]-ethyl}-acrylamide]
21 | 8 | 73 |  |  | C=CC(=O)NCCC(=O)Nc1ccc2ncnc(Nc3ccc(OCc4cccc(C)n4)c(Cl)c3)c2c1 [Example 144, N-(2-{4-[3-chloro-4-(6-methyl-pyridin-2-ylmethoxy)-phenylamino]-quinazolin-6-ylcarbamoyl}-ethyl)-acrylamide]
22 | 4 | 34 |  |  | C=CC(=O)N1C[C@H](OC(C)=O)C[C@H]1C(=O)Nc1ccc2ncnc(Nc3ccc(OCc4ccccn4)c(Cl)c3)c2c1 [Example 148, (3R,5S)-acetic acid 1-acryloyl-5-{4-[3-chloro-4-(pyridin-2-ylmethoxy)-phenylamino]-quinazolin-6-ylcarbamoyl}-pyrrolidin-3-ylester]
23 | 2 | 54 |  |  | C=CC(=O)N1C[C@H](O)C[C@H]1C(=O)Nc1ccc2ncnc(Nc3ccc(OCc4ccccn4)c(Cl)c3)c2c1 [Example 149, (2S,4R)-1-acryloyl-4-hydroxyl-pyrrolidine-2-carboxylic acid {4-[3-chloro-4-(pyridin-2-ylmethoxy)-phenylamino]-quinazolin-6-yl}-amide]
24 | 6 | 36 |  |  | C=CC(=O)N1C[C@H](SCC)C[C@H]1C(=O)Nc1ccc2ncnc(Nc3ccc(OCc4ccccn4)c(Cl)c3)c2c1 [Example 150, (2S,4R)-1-acryloyl-4-ethylsulfanyl-pyrrolidine-2-carboxylic acid {4-[3-chloro-4-(pyridin-2-ylmethoxy)-phenylamino]-quinazolin-6-yl}-amide]
25 | 3 | 105 |  |  | C=CC(=O)N1C[C@H](N(C)C)C[C@H]1C(=O)Nc1ccc2ncnc(Nc3ccc(OCc4ccccn4)c(Cl)c3)c2c1 [Example 151, (2S,4R)-1-acryloyl-4-dimethylamino-pyrrolidine-2-carboxylic acid {4-[3-chloro-4-(pyridin-2-ylmethoxy)-phenylamino]-quinazolin-6-yl}-amide]
26 | 4 | 166 |  |  | C=CC(=O)N1CCC[C@H]1C(=O)Nc1ccc2ncnc(Nc3ccc(OCc4cccnc4)c(Cl)c3)c2c1 [Example 152, (2S)-1-acryloyl-pyrrolidine-2-carboxylic acid {4-[3-chloro-4-(pyridin-3-ylmethoxy)-phenylamino]-quinazolin-6-yl}-amide]
27 | 29 | 394 |  |  | C=CC(=O)N1CCC[C@H]1C(=O)Nc1ccc2ncnc(Nc3ccc(OCc4ccncc4)c(Cl)c3)c2c1 [Example 153, (2S)-1-acryloyl-pyrrolidine-2-carboxylic acid {4-[3-chloro-4-(pyridin-4-ylmethoxy)-phenylamino]-quinazolin-6-yl}-amide]
28 | 5 | 86 |  |  | C=CC(=O)N1CCCC1CC(=O)Nc1ccc2ncnc(Nc3ccc(OCc4ccccn4)c(Cl)c3)c2c1 (stereo not shown) [Example 154, 2-(1-acryloyl-pyrrolidin-2-yl)-N-{4-[3-chloro-4-(pyridin-2-ylmethoxy)-phenylamino]-quinazolin-6-yl}-acetamide]
29 | 12 |  |  | 350 | C=CC(=O)N1CCC(C(=O)Nc2ccc3ncnc(Nc4ccc(OCc5ccccn5)c(Cl)c4)c3c2)C1 (stereo not shown) [Example 155, 1-acryloyl-pyrrolidine-3-carboxylic acid {4-[3-chloro-4-(pyridin-2-ylmethoxy)-phenylamino]-quinazolin-6-yl}-amide]
